Data: article PMC7710018, “Restoration of motor learning in a mouse model of Rett syndrome following long-term treatment with a novel small-molecule activator of TrkB” (Disease Models & Mechanisms, 2020)

Tests used:
[1] = tested on: 55 pharmacologically relevant receptors; parameters: method as in Massa et al., 2010; details: standard screening concentration; ref Massa et al., 2010; cited from earlier work
3T3-TrkC cells = experiment: NIH-3T3 cell survival (ViaLight); assay type: cell-based, mouse; details: serum-free medium, 72-96 h, PTX-BD4-3 1000 nM
Protocol: (§1) Fig. 2. PTX-BD4-3 promotes cell survival preferentially through TrkB. (A-D) Neurotrophin receptor-expressing NIH-3T3 cells were incubated in culture medium (CM) alone or in medium plus either the indicated neurotrophins (BDNF, NGF, NT-3) or PTX-BD4-3 or its parent compound LM22A-4 for 72-96 h, after which survival was measured using the ViaLight assay. […] Scale bar: 10 μm. (B) Survival dose-response curves for PTX-BD4-3 and LM22A-4 in 3T3-TrkB cells. ^§P≤0.001 compared to CM alone. (C) Representative images of 3T3-TrkA, 3T3-TrkC and 3T3-p75 cells grown in the presence of CM alone, CM+neurotrophin or CM+PTX-BD4-3. Scale bar: 10 μm. NGF, NT-3 and BDNF served as positive controls for 3T3-TrkA, 3T3-TrkC and 3T3-p75 cells, respectively. (D) PTX-BD4-3 (1000 nM) had no effect on survival of 3T3-TrkA, 3T3-TrkC or 3T3-p75 cells compared to medium alone. *P≤0.05, ***P≤0.001 compared to CM alone. For each determination in B and D, n=10-32 wells derived from four to five independent experiments. Statistical significance was determined by one-way ANOVA with Dunnett's post hoc multiple comparison test. (E,F) […] protein was extracted from human cementoblast-like cell (HCEM) cultures treated with either culture medium alone, BDNF, LM22A-4 or PTX-BD4-3, immunoprecipitated with anti-TrkB antibody and then probed sequentially on western blots with anti-Shc and anti-TrkB antibody. The ratio of Shc to TrkB in treated cultures was normalized and compared to control (CM alone) using Kruskal-Wallis ANOVA followed by Dunn's multiple comparisons test (*P≤0.05, ^§P≤0.001). n=13 independent experiments, and each protein sample was run on duplicate western blots and the normalized values averaged. RLUs, relative light units.
(§2) Mouse NIH-3T3 cells expressing TrkA (NIH-3T3-TrkA) were provided by Dr William Mobley (University of California at San Diego, San Diego, CA, USA), and NIH-3T3 cells expressing TrkB (NIH-3T3-TrkB) or TrkC (NIH-3T3-TrkC) were provided by Dr David Kaplan (University of Toronto, Toronto, ON, Canada). Cells were propagated in Dulbecco's modified Eagle medium (DMEM) supplemented with 10% fetal bovine serum (FBS; Invitrogen) and 200-400 µg/ml Geneticin. Cells were seeded into 24-well plates (30,000 cells/well) and cultured in medium consisting of 50% PBS and 50% DMEM without supplements. Following exposure to BDNF (20 ng/ml, 0.7 nM) or 10-1000 nM LM22A-4 or PTX-BD4-3 for 72-96 h, cells were suspended in 50 µl lysis buffer, transferred to white, opaque 96-well culture plates and survival was measured using the ViaLight Assay (Lonza Group, Rockland, ME, USA).

3T3-TrkA cells = experiment: NIH-3T3 cell survival (ViaLight); assay type: cell-based, mouse; details: serum-free medium, 72-96 h, PTX-BD4-3 1000 nM
Protocol: as §1, §2

3T3-p75 cells = experiment: NIH-3T3 cell survival (ViaLight); assay type: cell-based, mouse; details: serum-free medium, 72-96 h, PTX-BD4-3 1000 nM
Protocol: as §1, §2

[2] = tested on: heterozygous (Het) female Mecp2 mutant mice; experiment: Foot slip; assay type: in vivo, mouse; details: chronic treatment, 24 h after last treatment (data not shown)
Protocol: Small-molecule compounds were diluted in saline and delivered by i.p. injection. To define the acute effects of single drug treatments, behavioral testing was initiated 1 h after dosing. Durable effects of single drug treatments were evaluated 24 h after dosing. To define the effects of repeated dosing, mice were treated once every 3 days (q72 h) for 4 or 8 weeks, and behavioral testing was performed 24 h after the last dose.
Foot slip was used to assess locomotor coordination and spontaneous movement on a challenging substrate. Animals were placed on an elevated wire mesh surface (50 cm^2) with 1 cm^2 openings and allowed to freely explore for 5 min ([Starkey et al., 2005]). Total distance traveled was measured by a computer-operated animal activity system (ANY-maze, Stoelting). The total number of forepaw and hindpaw slips, where the foot came completely through the grate with no toes remaining on the grid, was manually counted, and the number of slips/cm traveled was calculated.
Figure S3. Single administration of PTX-BD4-3 reduces foot slip errors in Het mice. Mice received a single injection of PTX-BD4-3 (P.1, P.5, P.50) one hour prior to the beginning of foot slip testing. n = 10-23 animals derived from 3 […]
***p<0.001 compared to saline-treated Wt mice (V, black bar), †p<0.05 compared to saline-treated Het mice (V, grey bar); One-Way ANOVA with LSD post-hoc analysis. […]

Compound	binding within the panel of 55 receptors [1]	survival of 3T3-TrkC cells (3T3-TrkC cells)	survival of 3T3-TrkA cells (3T3-TrkA cells)	survival of 3T3-p75 cells (3T3-p75 cells)	foot slip errors [2]
O=C(NCCO)c1cc(C(=O)NCCO)cc(C(=O)NCCO)c1 [LM22A-4, N,N′,N′′-tris(2-hydroxyethyl)-1,3,5-benzenetricarboxamide, reference compound]	no significant binding				
COCCN(C)C(=O)c1cc(C(=O)N(C)CCOC)cc(C(=O)N(C)CCOC)c1 [PTX-BD4-3, benzene-1,3,5-tricarboxylic acid tris-[(2-methoxy-ethyl)-methyl-amide]]		no effect	no effect	no effect	no reduction
